Source: article PMC6399351, “Cationic Intrinsically Disordered Antimicrobial Peptides (CIDAMPs) Represent a New Paradigm of Innate Defense with a Potential for Novel Anti-Infectives” (Scientific Reports, 2019)
Converted amounts (≈) assume the structure as drawn. Read-outs that look alike come from different tables or passages of the source. Peptide text beside a SMILES is read from it. * marks the point of attachment. Palmitoyl = CCCCCCCCCCCCCCCC(=O)*

Columns and labels:
[1] = test system: Acinetobacter baumannii ATCC 19606; assay: CO-ADD MIC, broth microdilution (CLSI); format: cell-based; conditions: Mueller–Hinton broth, 5 × 10^5 CFU/mL, 18 h 37 °C, by CO-ADD
Source text: (§1) They were defined as the lowest peptide
(§2) Further details of the screening

[2] = test system: Pseudomonas aeruginosa ATCC 27853; assay: CO-ADD MIC, broth microdilution (CLSI); format: cell-based; conditions: Mueller–Hinton broth, 5 × 10^5 CFU/mL, 18 h 37 °C, by CO-ADD
Source text: as §1, §2

[3] = test system: P. aeruginosa ATCC 10145; conditions: CFU assay, 10 mM NaP
[4] = test system: Peptostreptococcus magnus ATCC 15794; assay: CFU assay of antimicrobial activity; format: cell-based, Peptostreptococcus magnus (now Finegoldia magna); conditions: 10 mM NaP, pH 7.3, 1% TSB
Method: (§3) All purified peptides and recombinant proteins were applied using a colony forming unit (CFU) assay in different media. Bacteria were grown to early log-phase in BHI, washed either with 10 mM Na-P, pH 7.4/1% TSB or pH 5.5/1% TSB, or pH 5.5 without TSB or BHI, and adjusted to a concentration of 10^4–10^5 colony forming units (CFU)/ml. For cell number control, 100 µl aliquots were diluted 1:10, 1:100 and 1:1000 and plated in duplicates on BHI agar plates. To 100 µl aliquots of the bacteria, suspended in the respective medium (10 mM Na-P buffer pH 7,0–7,4/ 1% (w/v) TSB; 10 mM Na-P buffer pH 5,5/ 1% (w/v) TSB; 10 mM Na-P buffer pH 7,0–7,4/ 1% (w/v) TSB pH 7,0–7,4/ 0,25% (w/v) glucose; 10 mM Na-P buffer pH 5,5/ 0,25% (w/v) glucose, respectively), 10 µl of a solution of the peptide or protein (two-fold dilutions, from 300 µg/ml or 150 µg/ml down to 19 ng/ml), dissolved in 0.01% (v/v) acetic acid, were added.
Then bacteria were incubated for 2 h at ambient temperature, if not otherwise stated. 10 µl of 0.01% (v/v) acetic acid, added to 100 µl aliquots of the bacteria in the respective medium, served as negative control. […] After 16 h incubation at 37 °C, CFU were counted using a colony counter (Bio Kobe, Japan) and expressed as mean of the duplicate estimation to achieve a complete dose-response curve. […]

[5] = test system: Moraxella osloensis RV A2/2001; conditions: CFU assay, 10 mM NaP, pH 7.3, 1% TSB
[6] = test system: E. coli ATCC 11775; assay: CFU assay of antimicrobial activity; format: cell-based, Escherichia coli; conditions: 10 mM NaP
Summary of the method: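 Early log-phase bacteria grown in BHI were exposed at 10^4–10^5 CFU/ml for 2 h at ambient temperature. Two-fold serial dilutions spanned 300 or 150 µg/mL–19 ng/mL (synthetic peptides) or 100 µg/mL–25 ng/mL (recombinant HRNR fragments), and colonies were counted after 16 h at 37 °C.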

[7] = test system: Staphylococcus hominis ATCC 27844; conditions: CFU assay, 10 mM NaP, pH 7.3, 1% TSB
[8] = test system: Candida albicans ATCC 90028; assay: CO-ADD MIC, antifungal assay (CLSI); format: cell-based; conditions: Yeast Nitrogen Base broth, 24 h 35 °C, by CO-ADD
Method: (§4) Fungi strains were cultured for 3 days on Yeast Extract-Peptone Dextrose (YPD) agar at 30 °C. A yeast suspension of 1 × 10^6 to 5 × 10^6 cells/mL (as determined by OD530) was prepared from five colonies. These stock suspensions were diluted with Yeast Nitrogen Base (YNB) broth to a final concentration of 2.5 × 10^3 CFU/mL. […] Plates were covered and incubated at 35 °C for 24 h without shaking.

[9] = test system: Cryptococcus neoformans ATCC 208821; assay: CO-ADD MIC, antifungal assay (CLSI); format: cell-based; conditions: Yeast Nitrogen Base broth, 24 h 35 °C, by CO-ADD
Method: as §4

[10] = test system: Clostridium perfringens ATCC 13124; conditions: CFU assay, 10 mM NaP
[11] = test system: Prevotella oralis ATCC 33321; assay: CFU assay of antimicrobial activity; format: cell-based; conditions: 10 mM NaP, pH 7.3, 1% TSB
Method: as §3, with “[…],” for “10 mM Na-P buffer pH 5,5/ 0,25% (w/v) glucose,”
(§5) Then bacteria were incubated for 2 h at ambient temperature, if not otherwise stated. 10 µl of 0.01% (v/v) acetic acid, added to 100 µl aliquots of the bacteria in the respective medium, served as negative control. From each test, 1:10 and 1:100 dilutions were generated and plated as duplicates of 100 µl aliquots on BHI agar plates. After 16 h incubation at 37 °C, CFU were counted using a colony counter (Bio Kobe, Japan) and expressed as mean of the duplicate estimation to achieve a complete dose-response curve. All experiments were performed at serial dilutions in a concentration range of 100 µg/mL −25 ng/mL for recombinant HRNR fragments and 300 or 150 µg/mL–19 ng/mL for synthetic peptides.

[12] = test system: Klebsiella pneumonia ATCC 700603; conditions: MDR strain; CLSI, Mueller–Hinton broth, 5 × 10^5 CFU/mL, 18 h 37 °C, by CO-ADD
[13] = test system: Staphylococcus epidermidis ATCC 14990; assay: CFU assay of antimicrobial activity; format: cell-based; conditions: 10 mM NaP
Method: as §3, §5

[14] = test system: Lactobacillus crispatus DSM 20584; assay: CFU assay of antimicrobial activity; format: cell-based; conditions: 10 mM NaP, pH 7.3, 1% TSB
Method: as §3, §5

[15] = test system: Propionibacterium acnes ATCC 6919; assay: CFU assay of antimicrobial activity; format: cell-based; conditions: 10 mM NaP
Method: as §3, §5

[16] = test system: Salmonella typhimurium ATCC 13311; assay: CFU assay of antimicrobial activity; format: cell-based; conditions: 10 mM NaP, pH 7.3, 1% TSB
Method: as §3, §5

CCCCCCCCCCCCCCCC(=O)NCC(=O)N[C@@H](CCCNC(=N)N)C(=O)N[C@@H](CCCNC(=N)N)C(=O)NCC(=O)NCC(=O)N[C@@H](CCCNC(=N)N)C(=O)NCC(=O)NCC(=O)N[C@@H](CCCNC(=N)N)C(=O)NCC(=O)N[C@@H](CCCNC(=N)N)C(=O)NCC(=O)N[C@@H](CCCNC(=N)N)C(=O)O [Pal-GR13] (Palmitoyl-GRRGGRGGRGRGR-OH)
Minimal inhibitory concentration (MIC) [1]: 2 µg/mL (≈ 1.26 µM) | Minimal inhibitory concentration (MIC) [2]: 8 µg/mL (≈ 5.02 µM) | LD90 ([3]; pH 5.5, 0.25% glucose): 0.075 µg/mL | LD90 ([3]; pH 7.3, 1% TSB): 0.3 µg/mL | LD90 [4]: 4.7 µg/mL | LD90 [5]: 0.59 µg/mL | LD90 ([6]; pH 5.5, 0.25% glucose): 0.15 µg/mL | LD90 ([6]; pH 7.3, 1% TSB): 1.18 µg/mL | LD90 [7]: 1.18 µg/mL | Minimal inhibitory concentration (MIC) [8]: 4 µg/mL (≈ 2.51 µM) | Minimal inhibitory concentration (MIC) [9]: 0.25 µg/mL (≈ 0.157 µM) | LD90 ([10]; pH 5.5, 0.25% glucose): 37.5 µg/mL | LD90 ([10]; pH 7.3, 0.25% glucose): 4.7 µg/mL | LD90 ([10]; pH 7.3, 1% TSB): 18.75 µg/mL | LD90 [11]: 9.38 µg/mL | Minimal inhibitory concentration (MIC) [12]: ≥16 µg/mL | LD90 ([13]; pH 5.5, 0.25% glucose): 9.38 µg/mL | LD90 ([13]; pH 7.3, 1% TSB): 0.59 µg/mL | LD90 [14]: 9.38 µg/mL | LD90 ([15]; pH 5.5, 0.25% glucose): 0.3 µg/mL | LD90 ([15]; pH 7.3, 0.25% glucose): 0.59 µg/mL | LD90 ([15]; pH 7.3, 1% TSB): 1.18 µg/mL | LD90 [16]: 2.35 µg/mL
